Data published in US6979685B1, “Cycloalkyl amine compounds and uses thereof” (Cardiome Pharma Corp., priority 1999, dated 2005).

Columns and labels:
[1] = test system: cardiac arrhythmias in conscious rats subjected to coronary artery occlusion; assay: Antiarrhythmic efficacy: arrhythmias induced by coronary artery occlusion in conscious rats; format: in vivo, rat; conditions: infusion rate which reduces the arrhythmia score to 50% of that of vehicle-treated animals
Method: Antiarrhythmic efficacy was assessed by investigating the effect of a compound on the incidence of cardiac arrhythmias in conscious rats subjected to coronary artery occlusion. Rats weighing 200–300 gms were subjected to preparative surgery and assigned to groups in a random block design. In each case, the animal was anesthetized with halothane during surgical preparation. The left femoral artery was cannulated for measurement of mean arterial blood pressure and withdrawal of blood samples. The left femoral vein was also cannulated for injection of drugs. The thoracic cavity was opened and a polyethylene occluder loosely placed around the left anterior descending coronary artery. The thoracic cavity was then closed. ECG was recorded by insertion of electrodes placed along the anatomical axis of the heart. All cannulae and electrode leads were exteriorized in the mid scapular region. […] ECG, arrhythmias, blood pressure, heart rate and mortality were monitored for 30 minutes after occlusion. Arrhythmias were recorded as ventricular tachycardia (VT) and ventricular fibrillation (VF) and scored according to Curtis, M. J. and Walker, M. J. A., Cardiovasc. […]
Occlusion is associated with increases in R-wave height and “S-T” segment elevation: and an occluded zone (measured after death by cardiogreen dye perfusion) in the range of 25%–50% of total left-ventricular weight. […]

[2] = test system: ECG parameters (cardiac sodium channel / potassium channel blockage); assay: Measurement of ECG parameters in pentobarbital anesthetized rats; format: in vivo, rat; conditions: bolus injection; for ED25 QT: dose producing a 25% increase in Q-T interval; for ED25 QRS: dose producing a 25% increase in QRS interval
Method: Rats weighing 200–250 gms were used in this example. Animals were anesthetized with 60 mg/kg pentobarbital i.p. The carotid artery and jugular vein were cannulated for measurement of blood pressure and drug injection, respectively. ECG was recorded by insertion of electrodes placed along the anatomical axis of the heart. All compounds were given as bolus injections.
Various ECG parameters were measured. Table 4 describes the results of the tests as ED25 (micromol/kg) which are the doses required to produce a 25% increase in the parameter measured (NE=not estimated). The increases in P—R interval and QRS interval indicate cardiac sodium channel blockage while the increase in Q-T interval indicates ancillary cardiac potassium channel blockage which is the property of a type 1a antiarrhythmic.

[3] = test system: cardiac sodium channel blockage (left ventricle square wave stimulation); assay: Assessment of sodium channel blockage by electrical stimulation of the left ventricle in rats; format: in vivo; conditions: infusion rate eliciting a 25% increase from control; rat left ventricle stimulation
Method: Rats were prepared according to the preceding procedure. Two silver stimulating electrodes were inserted through the chest wall and implanted in the left ventricle. Square wave stimulation was used to determine threshold current for capture, ventricular fibrillation threshold current, and effective refractory period (Howard, P. G. and Walker, M. J. A., Proc. West. Pharmacol. Soc. 33:123–127 (1990)). Table 5 contains ED25 values for these indices of cardiac sodium channel blockage, where the ED25 is the infusion rate in micromol/kg/minute of compound required to elicit a 25% increase from control. The increases in refractoriness indicate ancillary blockage of potassium channels. The threshold current for capture is represented by “It”. The fibrillation threshold current is represented by “VFT”. The effective refracting period is represented by “ERP”.

Cl.c1ccc2cc(CCOC3CCCC3N3CCOCC3)ccc2c1 [compound 1, (1R,2R)/(1S,2S)-2-(4-MORPHOLINYL)-1-(2-NAPHTHALENETHOXY)CYCLOPENTANE MONOHYDROCHLORIDE]
ED50AA [1]: 1.5 µmol/kg/min | ED25 PR ([2]; dose producing a 25% increase in P-R interval): 45 µmol/kg | ED25 QT [2]: 2.5 µmol/kg | ED25 QRS [2]: 37 µmol/kg | ED25 ERP (effective refractory period) [3]: 2.5 µmol/kg/min | ED25 It (threshold current for capture) [3]: 3.3 µmol/kg/min | ED25 VFT (fibrillation threshold current) [3]: 1.3 µmol/kg/min

Cl.O=C1CCN(C2CCCC2OCCc2c(Cl)cccc2Cl)C1 [compound 2, (1R,2R)/(1S,2S)-2-(3-KETOPYRROLIDINYL)-1-(2,6-DICHLOROPHENETHOXY)CYCLOPENTANE MONOHYDROCHLORIDE]
ED50AA [1]: 4 µmol/kg/min | ED25 QT [2]: 3.3 µmol/kg | ED25 QRS [2]: 9 µmol/kg | ED25 ERP (effective refractory period) [3]: 2.6 µmol/kg/min | ED25 It (threshold current for capture) [3]: 10 µmol/kg/min
